Results: patent publication US10202339B2, “Therapeutic compounds and compositions” (AGIOS PHARMACEUTICALS, INC., priority 2012, dated 2019)

Target: IDH1 R132H (Homo sapiens (Human), UniProt O75874, R132H)
Assay: In vitro assay for IDH1m (R132H) inhibitors, NADPH depletion with resazurin/resorufin detection
Type: biochemical
Settings: IDH1 R132H enzyme, 50 minutes at room temperature; read-out: IDH R132H IC50
Description: Assays were conducted in a volume of 76 μl assay buffer (150 mM NaCl, 10 mM MgCl2, 20 mM Tris pH 7.5, 0.03% bovine serum albumin) as follows in a standard 384-well plate: To 25 ul of substrate mix (8 uM NADPH, 2 mM aKG), 1 μl of test compound was added in DMSO. The plate was centrifuged briefly, and then 25 μl of enzyme mix was added (0.2 μg/ml IDH1 R132H) followed by a brief centrifugation and shake at 100 RPM. The reaction was incubated for 50 minutes at room temperature, then 25 μl of detection mix (30 μM resazurin, […]) was added and the mixture further incubated for 5 minutes at room temperature. The conversion of resazurin to resorufin was detected by fluorescent spectroscopy at Ex544 Em590 c/o 590.
Representative compounds of formula (I) set forth in Tables 1 and 2 were tested in this assay and the results are set forth below in Table 4.

Sequence of IDH1 R132H (O75874 whole entry R132H): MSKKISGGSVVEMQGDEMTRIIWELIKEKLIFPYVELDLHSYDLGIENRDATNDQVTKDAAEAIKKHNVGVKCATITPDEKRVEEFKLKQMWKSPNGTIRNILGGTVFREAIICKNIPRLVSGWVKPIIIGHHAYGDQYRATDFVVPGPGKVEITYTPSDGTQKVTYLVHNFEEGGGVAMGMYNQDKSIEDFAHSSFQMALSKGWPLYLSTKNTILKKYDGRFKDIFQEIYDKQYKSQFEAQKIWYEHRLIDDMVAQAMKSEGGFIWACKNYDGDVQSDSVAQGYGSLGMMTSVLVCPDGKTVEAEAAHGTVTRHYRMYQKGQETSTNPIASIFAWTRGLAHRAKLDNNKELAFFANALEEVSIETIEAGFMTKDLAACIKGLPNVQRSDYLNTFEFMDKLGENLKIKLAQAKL

IC50 | Compound
1000 to 10000 nM | Cc1ccc(NC(=O)Nc2cccc([N+](=O)[O-])c2)cc1S(=O)(=O)Nc1ccc(Cl)cc1 [Compound 275]
1000 to 10000 nM | COC(=O)c1cccc(NC(=O)Nc2ccc(C)c(S(=O)(=O)Nc3ccc(Cl)cc3)c2)c1 [Compound 276]
1000 to 10000 nM | Cc1ccc(NC(=O)NCc2ccc(Br)cc2)cc1S(=O)(=O)Nc1ccc(Cl)cc1 [Compound 277]
1000 to 10000 nM | Cc1ccc(NC(=O)NCc2ccccc2F)cc1S(=O)(=O)Nc1ccc(Cl)cc1 [Compound 278]
1000 to 10000 nM | Cc1ccc(NC(=O)NCc2cccc(F)c2)cc1S(=O)(=O)Nc1ccc(Cl)cc1 [Compound 279]
1000 to 10000 nM | Cc1ccc(NC(=O)NCc2ccc(Cl)cc2Cl)cc1S(=O)(=O)Nc1ccc(Cl)cc1 [Compound 280]
1000 to 10000 nM | Cc1cccc(CNC(=O)Nc2ccc(C)c(S(=O)(=O)Nc3ccc(Cl)cc3)c2)c1 [Compound 282]
1000 to 10000 nM | Cc1ccc(CNC(=O)Nc2ccc(C)c(S(=O)(=O)Nc3ccc(Cl)cc3)c2)cc1 [Compound 283]
1000 to 10000 nM | Cc1ccc(NC(=O)N[C@H](C)c2ccccc2)cc1S(=O)(=O)Nc1ccc(Cl)cc1 [Compound 284]
1000 to 10000 nM | Cc1ccc(NC(=O)Nc2ccccc2Cc2ccccc2)cc1S(=O)(=O)Nc1ccc(Cl)cc1 [Compound 285]
1000 to 10000 nM | Cc1ccc(NC(=O)NC2C[C@H]2c2ccccc2)cc1S(=O)(=O)Nc1ccc(Cl)cc1 (some centres unmarked) [Compound 286]
1000 to 10000 nM | Cc1ccc(NC(=O)Nc2ccc3ccccc3c2)cc1S(=O)(=O)Nc1ccc(Cl)cc1 [Compound 287]
1000 to 10000 nM | Cc1ccc(NC(=O)N[C@@H](C)c2cccc3ccccc23)cc1S(=O)(=O)Nc1ccc(Cl)cc1 [Compound 288]
1000 to 10000 nM | Cc1ccc(NC(=O)Nc2ccsc2)cc1S(=O)(=O)Nc1ccc(Cl)cc1 [Compound 289]
1000 to 10000 nM | Cc1ccc(NC(=O)Nc2c(-c3ccccc3)noc2C)cc1S(=O)(=O)Nc1ccc(Cl)cc1 [Compound 290]
1000 to 10000 nM | Cc1ccc(NC(=O)Nc2ccc3c(c2)CCO3)cc1S(=O)(=O)Nc1ccc(Cl)cc1 [Compound 291]
1000 to 10000 nM | Cc1ccc(NC(=O)Nc2ccc3c(c2)OCO3)cc1S(=O)(=O)Nc1ccc(Cl)cc1 [Compound 292]
1000 to 10000 nM | Cc1ccc(NC(=O)Nc2cccc(C(F)(F)F)c2)cc1S(=O)(=O)Nc1ccccc1Cl [Compound 293]
1000 to 10000 nM | Cc1ccc(NC(=O)Nc2cccc(C(F)(F)F)c2)cc1S(=O)(=O)Nc1cccc(Cl)c1 [Compound 294]

IC50 | Compound
1000 to 10000 nM | Cc1ccc(NC(=O)Nc2cccc(C(F)(F)F)c2)cc1S(=O)(=O)Nc1ccccc1F [Compound 295]
1000 to 10000 nM | Cc1ccc(NC(=O)Nc2cccc(C(F)(F)F)c2)cc1S(=O)(=O)Nc1cccc(F)c1 [Compound 296]
1000 to 10000 nM | Cc1ccc(NC(=O)Nc2cccc(C(F)(F)F)c2)cc1S(=O)(=O)Nc1ccc(F)cc1 [Compound 297]
1000 to 10000 nM | Cc1cc(F)ccc1NS(=O)(=O)c1cc(NC(=O)Nc2cccc(C(F)(F)F)c2)ccc1C [Compound 298]
1000 to 10000 nM | Cc1ccc(NC(=O)Nc2cccc(C(F)(F)F)c2)cc1S(=O)(=O)Nc1ccc(F)c(Cl)c1 [Compound 299]
1000 to 10000 nM | Cc1ccc(NC(=O)Nc2cccc(C(F)(F)F)c2)cc1S(=O)(=O)Nc1cc(F)c(F)cc1F [Compound 301]
1000 to 10000 nM | Cc1cccc(NS(=O)(=O)c2cc(NC(=O)Nc3cccc(C(F)(F)F)c3)ccc2C)c1 [Compound 302]
≤ 1000 nM | Cc1ccc(NC(=O)Nc2cccc(C(F)(F)F)c2)cc1S(=O)(=O)Nc1ccc(O)cc1 [Compound 304, N-(4-hydroxyphenyl)-2-methyl-5-(3-(3-(trifluoromethyl)phenyl)ureido)benzenesulfonamide]
1000 to 10000 nM | CCCOc1ccc(NS(=O)(=O)c2cc(NC(=O)Nc3cccc(C(F)(F)F)c3)ccc2C)cc1 [Compound 305]
1000 to 10000 nM | Cc1ccc(NC(=O)Nc2cccc(C(F)(F)F)c2)cc1S(=O)(=O)Nc1ccc(OS(C)(=O)=O)cc1 [Compound 306]
1000 to 10000 nM | CCOC(=O)COc1ccc(NS(=O)(=O)c2cc(NC(=O)Nc3cccc(C(F)(F)F)c3)ccc2C)cc1 [Compound 308]
1000 to 10000 nM | CC(=O)Nc1ccc(NS(=O)(=O)c2cc(NC(=O)Nc3cccc(C(F)(F)F)c3)ccc2C)cc1 [Compound 309]
1000 to 10000 nM | CCOC(=O)CNc1ccc(NS(=O)(=O)c2cc(NC(=O)Nc3cccc(C(F)(F)F)c3)ccc2C)cc1 [Compound 310]
1000 to 10000 nM | Cc1ccc(NC(=O)Nc2cccc(C(F)(F)F)c2)cc1S(=O)(=O)Nc1ccc(C#N)cc1 [Compound 311]
1000 to 10000 nM | Cc1ccc(NC(=O)Nc2cccc(C(F)(F)F)c2)cc1S(=O)(=O)Nc1ccc(C(=O)O)cc1 [Compound 312]
1000 to 10000 nM | Cc1ccc(NC(=O)Nc2cccc(C(F)(F)F)c2)cc1S(=O)(=O)Nc1ccc(S(C)(=O)=O)cc1 [Compound 313]
1000 to 10000 nM | Cc1ccc(NC(=O)Nc2cccc(C(F)(F)F)c2)cc1S(=O)(=O)Nc1cccc(CCc2ccccc2)c1 [Compound 314]
1000 to 10000 nM | Cc1ccc(NC(=O)Nc2cccc(C(F)(F)F)c2)cc1S(=O)(=O)Nc1ccc2c(c1)OCCO2 [Compound 315, N-(2,3-dihydrobenzo[b][1,4]dioxin-6-yl)-2-methyl-5-(3-(3(trifluoromethyl)phenyl)ureido)benzenesulfonamide]
1000 to 10000 nM | Cc1ccc(NC(=O)Nc2cccc(C(F)(F)F)c2)cc1S(=O)(=O)Nc1ccc2cc[nH]c2c1 [Compound 316, N-(1H-indol-6-yl)-2-methyl-5-(3-(3-(trifluoromethyl)phenyl)ureido)benzenesulfonamide]

IC50 | Compound
1000 to 10000 nM | CC(=O)n1ccc2cc(NS(=O)(=O)c3cc(NC(=O)Nc4cccc(C(F)(F)F)c4)ccc3C)ccc21 [Compound 318]
1000 to 10000 nM | Cc1ccc(NC(=O)Nc2cccc(C(F)(F)F)c2)cc1S(=O)(=O)Nc1ccc2c(c1)ncn2C [Compound 320, 2-methyl-N-(1-methyl-1H-benzo[d]imidazol-5-yl)-5-(3-(3-(trifluoromethyl)phenyl)ureido)benzene sulfonamide]
1000 to 10000 nM | Cc1ccc(NC(=O)Nc2cccc(C(F)(F)F)c2)cc1S(=O)(=O)Nc1cccc2ncccc12 [Compound 321]
1000 to 10000 nM | Cc1ccc(NC(=O)Nc2cccc(C(F)(F)F)c2)cc1S(=O)(=O)Nc1ccc(-c2nn[nH]n2)cc1 [Compound 322]
1000 to 10000 nM | Cc1ccc(NC(=O)Nc2cccc(C(F)(F)F)c2)cc1S(=O)(=O)N1CCNCC1 [Compound 323]
1000 to 10000 nM | CCOC(=O)COc1ccc(NS(=O)(=O)c2cc(NC(=O)Nc3ccc(C(F)(F)F)cc3)ccc2C)cc1 [Compound 325]
1000 to 10000 nM | Cc1ccc(NC(=O)Nc2ccc(C(F)(F)F)cc2)cc1S(=O)(=O)Nc1ccc(OCC(=O)O)cc1 [Compound 326]
1000 to 10000 nM | Cc1ccc(NC(=O)Nc2ccc(C(F)(F)F)cc2)cc1S(=O)(=O)Nc1ccc(OS(C)(=O)=O)cc1 [Compound 327]
1000 to 10000 nM | CCOC(=O)C(C)Oc1ccc(NS(=O)(=O)c2cc(NC(=O)Nc3ccc(C(F)(F)F)cc3)ccc2C)cc1 (centres unmarked) [Compound 328]
1000 to 10000 nM | CC(=O)Nc1ccc(NS(=O)(=O)c2cc(NC(=O)Nc3ccc(C(F)(F)F)cc3)ccc2C)cc1 [Compound 329]
1000 to 10000 nM | CCOC(=O)CNc1ccc(NS(=O)(=O)c2cc(NC(=O)Nc3ccc(C(F)(F)F)cc3)ccc2C)cc1 [Compound 330]
1000 to 10000 nM | Cc1ccc(NC(=O)Nc2ccc(C(F)(F)F)cc2)cc1S(=O)(=O)Nc1ccc(S(C)(=O)=O)cc1 [Compound 331]
1000 to 10000 nM | Cc1ccc(NC(=O)Nc2ccc(C(F)(F)F)cc2)cc1S(=O)(=O)Nc1cccc(CCc2ccccc2)c1 [Compound 332]
1000 to 10000 nM | CCc1ccc(NC(=O)Nc2cccc(C(F)(F)F)c2)cc1S(=O)(=O)Nc1ccc(Cl)cc1 [Compound 333]
1000 to 10000 nM | Cc1ccc(NC(=O)Nc2cccc(S(=O)(=O)Nc3ccccc3)c2)cc1S(=O)(=O)Nc1ccc(Cl)cc1 [Compound 334]
1000 to 10000 nM | Cc1ccc(NC(=O)Nc2cccc(S(=O)(=O)Nc3ccc(Cl)cc3)c2)cc1S(=O)(=O)Nc1ccccc1 [Compound 335]
1000 to 10000 nM | Cc1ccc(NC(=O)Nc2ccc(C)c(S(=O)(=O)Nc3ccc(Cl)cc3)c2)cc1S(=O)(=O)Nc1ccc(Cl)cc1 [Compound 336]
1000 to 10000 nM | O=C(Nc1cccc(C(F)(F)F)c1)Nc1cc(S(=O)(=O)Nc2ccccc2)ccc1-c1ccsc1 [Compound 351, N-phenyl-4-(thiophen-3-yl)-3-(3-(3-(trifluoromethyl)phenyl)ureido)benzenesulfonamide]
1000 to 10000 nM | Cc1ccc(NC(=O)Nc2cccc(C(F)(F)F)c2)cc1S(=O)(=O)Nc1cccc(O)c1 [compound 303]

Compound | IC50
N-(1H-benzo[d]imidazol-7-yl)-2-methyl-5-(3-(3-(trifluoromethyl)phenyl)ureido)benzenesulfonamide [Compound 319] | 1000 to 10000 nM
N-(1H-indol-7-yl)-2-methyl-5-(3-(3-(trifluoromethyl)phenyl)ureido)benzenesulfonamide [Compound 317] | 1000 to 10000 nM
